Test results from PubChem BioAssay (NCI).
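Five compound concentrations were applied to cells in 96-well plates for 48 hours; endpoints were derived by simple linear interpolation of the resulting dose-response curve. GI50 marks 50% less growth. TGI: concentration producing complete growth inhibition.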

How the values were obtained:
Assay in all cases: NCI-60 cell line screen, 48 h
KM12 colon = test system: KM12 colon
MOLT-4 leukemia = test system: MOLT-4 leukemia
HCT-15 colon = test system: HCT-15 colon
IGROV1 ovarian = test system: IGROV1 ovarian
MDA-MB-435 = test system: MDA-MB-435
NCI/ADR-RES ovarian = test system: NCI/ADR-RES ovarian
DU-145 prostate = test system: DU-145 prostate
SN12C renal = test system: SN12C renal
MDA-MB-231 breast = test system: MDA-MB-231 breast
HCC-2998 colon = test system: HCC-2998 colon

Structure (SMILES)	TGI (KM12 colon) [µM]	TGI (MOLT-4 leukemia) [µM]	TGI (HCT-15 colon) [µM]	TGI (IGROV1 ovarian) [µM]	TGI (MDA-MB-435) [µM]	TGI (NCI/ADR-RES ovarian) [µM]	TGI (DU-145 prostate) [µM]	TGI (SN12C renal) [µM]	TGI (MDA-MB-231 breast) [µM]	TGI (HCC-2998 colon) [µM]	GI50 (HCC-2998 colon) [µM]	GI50 (MOLT-4 leukemia) [µM]	GI50 (IGROV1 ovarian) [µM]
Nc1nc(N)c2c(n1)NC(c1ccccc1)CC(/C=C/c1ccc(Cl)cc1)=N2 (stereo not given)	13.6	12.6	23.3	7.67	21.1	11.3	24.4	23.6	18.4	–	–	–	–
CN(CCCNC(=O)c1cn(C)c2c1ccc1cc(Cl)c(Cl)cc12)CCCNC(=O)c1cn(C)c2c1ccc1cc(Cl)c(Cl)cc12	20.8	30.3	27.5	25.5	26.4	33.1	31.6	32.3	29.8	18.6	–	–	–
CC(Sc1ccccc1)C(CO)(CO)[N+](=O)[O-] (stereo not given)	–	19.3	30.6	38	–	–	–	31.2	–	31.5	–	–	–
O=S(=O)(/N=C(\NO)Nc1ccc(Cl)cc1)c1ccc(S(=O)(=O)c2ccccc2)s1	60.4	35.9	> 100	39.8	37.3	> 100	46	39.9	86.2	29.7	–	–	–
CN(C)CCn1c(=O)c2ccc3c4c(nn3CCN(C)C)c3cc(N)ccc3n(c1=O)c24	0.63	> 100	0.222	4.45	0.0654	0.749	0.438	0.069	0.195	1.04	–	–	–
N[C@H]1CCN(c2c(F)cc3c(=O)c(C(=O)O)cn4c3c2Oc2cc3c(ccc5ccccc53)cc2-4)C1	> 100	> 100	> 100	> 100	> 100	> 100	> 100	> 100	0.864	6.82	–	–	–
O=CN1CCN(C(=O)c2cc(Cl)cc(Cl)c2)C1=S	29.8	42.7	35.2	34.7	28.1	80.7	37.5	31	33.8	31.9	–	–	–
O=[N+]([O-])c1ccc2c(c1)c(N=NC(=S)NC1CCCCC1)c(O)n2CN1CCOCC1	18	> 100	15.6	15.4	20	18.7	26.8	19.7	31.8	17.6	–	–	–
C/C(=N\NC(=O)c1cccnc1)c1cccc(/C(C)=N/NC(=O)c2cccnc2)n1	> 100	12	> 100	27.7	–	–	–	> 100	–	> 100	2.17	2.45	3.74
CS(=O)(=O)c1nc(-c2cc3c(c(S(C)(=O)=O)n2)CCCC3)cc2c1CCCC2	> 100	> 100	> 100	> 43.5	> 100	> 100	> 100	> 100	> 100	> 100	–	–	–
CC(=O)N(C)c1ccc2c(ccc[n+]2[O-])c1[N+](=O)[O-]	> 100	> 100	> 100	> 100	–	–	–	> 100	–	> 100	–	–	–
COc1ccc(N=c2ssc(C(=S)Nc3ccc(OC)cc3)c2S)cc1	> 100	> 100	> 100	> 100	> 100	> 100	> 100	> 100	> 100	84.6	–	–	–
CCC(C)C1NC(=O)C2CCCN2C(=O)C(CC2CO2)OC(=O)CCNC(=O)C(C)N(C)C(=O)C(C(C)C)N(C)C1=O (stereo not given)	> 100	–	> 100	> 100	> 100	> 100	> 100	> 100	> 100	> 100	–	–	–
C[C@]12CC[C@@H]3c4ccccc4CC[C@H]3[C@@H]1CC[C@@H]2O	> 100	> 100	> 100	> 100	–	–	–	> 100	–	> 100	–	–	–
CN1C2CCC1C(C(O)c1ccccc1[N+](=O)[O-])C(=O)C2 (stereo not given)	> 100	> 100	> 100	> 100	53	91.9	86.8	> 100	> 100	> 100	–	–	–
Nc1ccc2c(c1)C(=O)N(O)C2=O	> 100	> 100	> 100	> 100	–	–	–	> 100	–	> 100	–	–	–
